Legend:
[1] = target: Mcl-1 (Homo sapiens (Human), UniProt Q07820); test: TR-FRET binding assay, FITC-Bak peptide and MBP-tagged Mcl-1; conditions: read-out: Ki for Inhibition of Mcl-1 by TR-FRET assay
Description: Compounds are diluted in DMSO in a 16-point, semilog serial dilution scheme. […] The plate was mixed and incubated for 3 hours at room temperature. […] TR-FRET signal is plotted and IC50 and Ki values are calculated in the same manner as the fluorescence polarization anisotropy based competition assays.

[2] = test system: H929 human cancer cell lines; test: Cellular viability / proliferation (Cell TiterGlo, 72 h); assay type: cell-based; conditions: Homo sapiens, NCI-H929, 72 h, read-out: GI50 on cellular proliferation of H929 human cancer cell lines, H929 cells, 72 h, Cell TiterGlo, 10% FBS
How it was run: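 Top dose 50 μM, serially diluted 2-fold, applied one day after seeding (1,000 cells/well, 10% FBS), DMSO below 1%.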

Mcl-1, sequence (Q07820 172-327): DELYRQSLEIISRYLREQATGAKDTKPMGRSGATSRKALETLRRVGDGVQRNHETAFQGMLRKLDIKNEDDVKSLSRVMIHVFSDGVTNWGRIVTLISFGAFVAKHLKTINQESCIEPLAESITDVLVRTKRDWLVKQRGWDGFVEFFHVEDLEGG

Structure (SMILES) | Ki [1] [µM] | GI50 [2] [µM]
Cc1cc(OCCCc2c3n(c4c(-c5c(C)nn(C)c5C)c(Cl)ccc24)[C@H](C)CN(c2cc(OCc4cccnc4)cc4cc(C(=O)O)n(C)c24)C3=O)cc(C)c1Cl [Example 487, (R)-7-(7-Chloro-10-(3-(4-chloro-3,5-dimethylphenoxy)propyl)-4-methyl-1-oxo-6-(1,3,5-trimethyl-1H-pyrazol-4-yl)-3,4-dihydropyrazino[1,2-a]indol-2(1H)-yl)-1-methyl-5-(pyridin-3-ylmethoxy)-1H-indole-2-carboxylic acid] | 0.00023 | 0.28
COc1ccc(N2C[C@@H](C)n3c(c(CCCOc4cc(C)c(Cl)c(C)c4)c4ccc(Cl)c(-c5c(C)nc(CN(C)C)nc5C)c43)C2=O)c2c1cc(C(=O)O)n2C [Example 483, (R)-7-(7-Chloro-10-(3-(4-chloro-3,5-dimethylphenoxy)propyl)-6-(2-((dimethylamino)methyl)-4,6-dimethylpyrimidin-5-yl)-4-methyl-1-oxo-3,4-dihydropyrazino[1,2-a]indol-2(1H)-yl)-4-methoxy-1-methyl-1H-indole-2-carboxylic acid] | < 0.0002 | 0.28
Cc1cc(OCCCc2c3n(c4c(-c5c(C)nn(C)c5C)c(Cl)ccc24)[C@H](C)CN(c2cc(N(C)Cc4ccccn4)cc4c(C(=O)O)cn(C)c24)C3=O)cc(C)c1Cl [Example 564, (R)-7-(7-chloro-10-(3-(4-chloro-3,5-dimethylphenoxy)propyl)-4-methyl-1-oxo-6-(1,3,5-trimethyl-1H-pyrazol-4-yl)-3,4-dihydropyrazino[1,2-a]indol-2(1H)-yl)-1-methyl-5-(methyl(pyridin-2-ylmethyl)amino)-1H-indole-3-carboxylic acid] | 0.00046 | 0.59
Cc1cc(OCCCc2c3n(c4c(-c5c(C)nn(C)c5C)c(Cl)ccc24)[C@H](C)CN(c2cn(CCN4CCOCC4)c4ccc(-c5ncn(-c6ncccn6)n5)cc24)C3=O)cc(C)c1Cl [Example 720, (R)-7-Chloro-10-(3-(4-chloro-3,5-dimethylphenoxy)propyl)-4-methyl-2-(1-(2-morpholinoethyl)-5-(1-(pyrimidin-2-yl)-1H-1,2,4-triazol-3-yl)-1H-indol-3-yl)-6-(1,3,5-trimethyl-1H-pyrazol-4-yl)-3,4-dihydropyrazino[1,2-a]indol-1(2H)-one] | 0.00051 | 0.22
CCOCCOc1cc(N2C[C@@H](C)n3c(c(CCCOc4cc(C)c(Cl)c(C)c4)c4ccc(Cl)c(-c5c(C)nn(C)c5C)c43)C2=O)c2c(c1)c(C(=O)O)cn2Cc1ccccn1 [Example 610, (R)-7-(7-chloro-10-(3-(4-chloro-3,5-dimethylphenoxy)propyl)-4-methyl-1-oxo-6-(1,3,5-trimethyl-1H-pyrazol-4-yl)-3,4-dihydropyrazino[1,2-a]indol-2(1H)-yl)-5-(2-ethoxyethoxy)-1-(pyridin-2-ylmethyl)-1H-indole-3-carboxylic acid] | < 0.0002 | 0.4
Cc1cccc(Cn2cc(C(=O)O)c3cccc(N4C[C@@H](C)n5c(c(CCCOc6cc(C)c(Cl)c(C)c6)c6ccc(Cl)c(-c7c(C)nn(C)c7C)c65)C4=O)c32)n1 (single isomer, unassigned) [Example 491] | < 0.0002 | 0.28
COc1ccc(N2C[C@@H](C)n3c(c(CCCOc4cc(C)c(Cl)c(C)c4)c4ccc(Cl)c(-c5c(C)ncnc5C)c43)C2=O)c2c1cc(C(=O)O)n2Cc1ccc(C)cn1 [Example 478, (R)-7-(7-Chloro-10-(3-(4-chloro-3,5-dimethylphenoxy)propyl)-6-(4,6-dimethylpyrimidin-5-yl)-4-methyl-1-oxo-3,4-dihydropyrazino[1,2-a]indol-2(1H)-yl)-4-methoxy-1-((5-methylpyridin-2-yl)methyl)-1H-indole-2-carboxylic acid] | 0.00024 | 0.56
COCCn1cc(N2C[C@@H](C)n3c(c(CCCOc4cc(C)c(Cl)c(C)c4)c4ccc(Cl)c(-c5c(C)nn(C)c5C)c43)C2=O)c2cc(-c3ncn(CC4CN(C(C)=O)C4)n3)ccc21 [Example 618, (R)-2-(5-(1-((1-Acetylazetidin-3-yl)methyl)-1H-1,2,4-triazol-3-yl)-1-(2-methoxyethyl)-1H-indol-3-yl)-7-chloro-10-(3-(4-chloro-3,5-dimethylphenoxy)propyl)-4-methyl-6-(1,3,5-trimethyl-1H-pyrazol-4-yl)-3,4-dihydropyrazino[1,2-a]indol-1(2H)-one] | 0.0038 | 0.36
Cc1cc(OCCCc2c3n(c4c(-c5c(C)nn(C)c5C)c(Cl)ccc24)[C@H](C)CN(c2cn(C)c4ccc(-n5nccn5)nc24)C3=O)cc(C)c1Cl [Example 664, (R)-7-Chloro-10-(3-(4-chloro-3,5-dimethylphenoxy)propyl)-4-methyl-2-(1-methyl-5-(2H-1,2,3-triazol-2-yl)-1H-pyrrolo[3,2-b]pyridin-3-yl)-6-(1,3,5-trimethyl-1H-pyrazol-4-yl)-3,4-dihydropyrazino[1,2-a]indol-1(2H)-one] | 0.00064 | 0.58
Cc1cc(OCCCc2c3n(c4c(-c5c(C)nn(C)c5C)c(Cl)ccc24)[C@H](C)CN(c2cn(C)c4ccc(-c5ncn(-c6ccccn6)n5)cc24)C3=O)cc(C)c1Cl [Example 647, (R)-7-Chloro-10-(3-(4-chloro-3,5-dimethylphenoxy)propyl)-4-methyl-2-(1-methyl-5-(1-(pyridin-2-yl)-1H-1,2,4-triazol-3-yl)-1H-indol-3-yl)-6-(1,3,5-trimethyl-1H-pyrazol-4-yl)-3,4-dihydropyrazino[1,2-a]indol-1(2H)-one] | 0.00032 | 1.1
Cc1cc(OCCCc2c3n(c4c(-c5c(C)nn(C)c5C)c(Cl)ccc24)[C@H](C)CN(c2cn(CCN4CCCC4)c4ccc(C(=O)O)cc24)C3=O)cc(C)c1Cl [Example 511, (R)-3-(7-Chloro-10-(3-(4-chloro-3,5-dimethylphenoxy)propyl)-4-methyl-1-oxo-6-(1,3,5-trimethyl-1H-pyrazol-4-yl)-3,4-dihydropyrazino[1,2-a]indol-2(1H)-yl)-1-(2-(pyrrolidin-1-yl)ethyl)-1H-indole-5-carboxylic acid] | < 0.0002 | 0.3
Cc1cc(OCCCc2c3n(c4c(-c5c(C)nn(C)c5C)c(Cl)ccc24)[C@H](C)CN(c2cn(C)c4ccc(-c5nc6cccc(C)n6n5)cc24)C3=O)cc(C)c1Cl [Example 696, (R)-7-Chloro-10-(3-(4-chloro-3,5-dimethylphenoxy)propyl)-4-methyl-2-(1-methyl-5-(5-methyl-[1,2,4]triazolo[1,5-a]pyridin-2-yl)-1H-indol-3-yl)-6-(1,3,5-trimethyl-1H-pyrazol-4-yl)-3,4-dihydropyrazino[1,2-a]indol-1(2H)-one] | 0.0011 | 1.4
COCCOc1cc(N2C[C@@H](C)n3c(c(CCCOc4cc(C)c(Cl)c(C)c4)c4ccc(Cl)c(-c5c(C)ncnc5C)c43)C2=O)c2c(c1)cc(C(=O)O)n2C [Example 539, (R)-7-(7-Chloro-10-(3-(4-chloro-3,5-dimethylphenoxy)propyl)-6-(4,6-dimethylpyrimidin-5-yl)-4-methyl-1-oxo-3,4-dihydropyrazino[1,2-a]indol-2(1H)-yl)-5-(2-methoxyethoxy)-1-methyl-1H-indole-2-carboxylic acid] | < 0.0002 | < 0.2
Cc1cc(OCCCc2c3n(c4c(-c5c(C)nn(C)c5C)c(Cl)ccc24)[C@H](C)CN(c2cn(CCCl)c4ccc(-c5ncn(C)n5)cc24)C3=O)cc(C)c1Cl [Example 529, (R)-7-Chloro-10-(3-(4-chloro-3,5-dimethylphenoxy)propyl)-2-(1-(2-chloroethyl)-5-(1-methyl-1H-1,2,4-triazol-3-yl)-1H-indol-3-yl)-4-methyl-6-(1,3,5-trimethyl-1H-pyrazol-4-yl)-3,4-dihydropyrazino[1,2-a]indol-1(2H)-one] | < 0.0002 | 0.52
Cc1cc(OCCCc2c3n(c4c(-c5c(C)ncnc5C)c(Cl)ccc24)[C@H](C)CN(c2cn(C)c4ncc(C(=O)O)nc24)C3=O)cc(C)c1Cl [Example 644, (R)-7-(7-chloro-10(3-(4-chloro-3,5-dimethylphenoxy)propyl)-6-(4,6-dimethylpyrimidin-5-yl)-4-methyl-1-oxo-3,4-dihydropyrazino[1,2-a]indol-2(1H)-yl)-5-methyl-5H-pyrrolo[2,3-b]pyrazine-2-carboxylic acid] | < 0.0002 | 1.9
Cc1cc(OCCCc2c3n(c4c(-c5c(C)nn(C)c5C)c(Cl)ccc24)[C@H](C)CN(c2cc(CN4CCOCC4)cc4cc(C(=O)O)n(C)c24)C3=O)cc(C)c1Cl [Example 623, (R)-7-(7-chloro-10-(3-(4-chloro-3,5-dimethylphenoxy)propyl)-4-methyl-1-oxo-6-(1,3,5-trimethyl-1H-pyrazol-4-yl)-3,4-dihydropyrazino[1,2-a]indol-2(1H)-yl)-1-methyl-5-(morpholinomethyl)-1H-indole-2-carboxylic acid] | < 0.0002 | < 0.2
Cc1cccc(Cn2cnc(-c3ccc4c(c3)c(N3C[C@@H](C)n5c(c(CCCOc6cc(C)c(Cl)c(C)c6)c6ccc(Cl)c(-c7c(C)nn(C)c7C)c65)C3=O)cn4CC(=O)N(C)C)n2)n1 [Example 639, (R)-2-(3-(7-Chloro-10-(3-(4-chloro-3,5-dimethylphenoxy)propyl)-4-methyl-1-oxo-6-(1,3,5-trimethyl-1H-pyrazol-4-yl)-3,4-dihydropyrazino[1,2-a]indol-2(1H)-yl)-5-(1-((6-methylpyridin-2-yl)methyl)-1H-1,2,4-triazol-3-yl)-1H-indol-1-yl)-N,N-dimethylacetamide] | 0.0042 | 0.9

Reference: patent US11596639B2, “Substituted indole Mcl-1 inhibitors” (Vanderbilt University, priority 2016, dated 2023)
